Measurements: paper PMC11362066, “Fecal elimination of fluralaner in different carnivore species after oral administration” (Frontiers in Veterinary Science, 2024)
Where two headings read alike, the source gives them in different places.

Assays:
[1] = set-up: method as in PMID 28103942; settings: 221 dogs treated; cited from earlier work
[2] = cited from earlier work
[3] = system: dog and cat fleas; settings: cited from earlier work
[4] = Fecal elimination of fluralaner after oral administration, Fossa; assay type: in vivo, Cryptoprocta ferox; settings: Fossa n = 1
Protocol: (§1) Based on the species present at the Paris Zoo, the animals selected to be part of the study are described in Table 1.
(§2) Each individual received 1–3 tablets of fluralaner (Bravecto®, formulations from 112.5 mg to 1,400 mg per tablet), based on the dose determined (Table 2) and the actual BW of the animal on day 0 (D0). Tablets were administered with the food. Tablets were not divided, according to the summary of product characteristics and the dose administered was adjusted as closely as possible to the theoretical dose calculated. The recommended bracket doses (25–56 mg/kg in a 20-kg dog) were used as a guideline (adjusted to the body weight of the animals) to ensure that the actual dose administered would remain in the acceptable margin. For instance, for the Iberian Wolf: using the dose range 25–56 mg/kg gave a D-reference of [500–1,120] mg, thus c = D-ref/P-ref = [0.76–1.69], i.e., D-target = [763–1,698] mg, resulting in a reference range of [21.9–48.6] mg.kg^−1. The actual doses administered were between 28 and 30 mg.kg^−1. This was checked for all species.
(§3) Feces were sampled on the floor, in priority on concrete ground in indoor facilities when animals were isolated. Fecal sampling was performed by keepers with gloves, transferred to sterile vials, then saved at −80°C until transfer to the lab.
(§4) For feces analysis, well-homogenized samples were weighed and dried at 40°C overnight to eliminate water. 200 mg of the dried sample were weighed, 80 μL of IS solution (0.5 μg/mL solution), 0.52 mL of water, 200 mg QuEChERS salts and 1 mL of acetonitrile were added in a 5 mL plastic centrifuge tube. The sample was then mixed well by vortexing for 2 min and then centrifuged at 12,000 rpm for 5 min.
(§5) The upper clear layer solutions were transferred to auto-sampler vials and placed in the auto-sampler at 10°C for LC–MS/MS analysis. All results are reported in μg.kg^−1 dry weight (dw).
(§6) All pharmacokinetic data were computed using a non-linear model and “PK solver” in Microsoft-excel®. This approach has been used by Kilp et al. ([21]) and considered satisfactory by comparison with a standard PK software such as WinNonLIn®.
(§7) Only Lion and Mountain lion data (3 individuals+negative control for each species) are presented in Figure 2 as mean ± SD of the fecal concentration of fluralaner vs. time post administration. When data were LOD < Data<LOQ, an average value of 4 has been used (for graphical and PK analysis purposes). When concentrations were < LOD, ½ LOD value was used for the same purposes.

[5] = system: honey bees; set-up: method as in ref 10 = [10]; 10. CVMP ( 2017 ) CVMP assessment report for EXZOLT (EM EA/V/C/004344/0000), EMA/377159/2017, Available at: https://www.ema.europa.eu/en/documents/assessment-report/exzolt-epar-public-assessment-repor; settings: cited from earlier work
[6] = cited from earlier work; remark: listed apart in the source
[7] = cited from earlier work; remark: listed apart in the source
[8] = set-up: method as in PMID 33480547; settings: black bears, orally at 25 mg.kg^−1; cited from earlier work
[9] = Fecal elimination of fluralaner after oral administration, Jaguar; assay type: in vivo, Panthera onca; settings: Jaguar n = 1
Protocol: as §1, §2, §3, §4, §5, §6, §7

[10] = Fecal elimination of fluralaner after oral administration, Suricate; assay type: in vivo, Suricatta suricatta; settings: feces, Suricate n = 1
Protocol: as §1, §2, §3, §4, §5, §6, §7

[11] = set-up: method as in PMID 33733534; settings: cited from earlier work
[12] = Fecal elimination of fluralaner after oral administration, Mountain lion; assay type: in vivo, Puma concolor
Protocol: as §1, §2, §3, §4, §5, §6, §7

[13] = Fecal elimination of fluralaner after oral administration, European otter; assay type: in vivo, Lutra lutra; settings: European otter n = 1
Protocol: as §1, §2, §3, §4, §5, §6, §7

[14] = set-up: method as in PMID 33407820; settings: wombats, pour on, doses of 25 or 85 mg.kg^−1; cited from earlier work
[15] = Fecal elimination of fluralaner after oral administration, Iberian wolf; assay type: in vivo, Canis lupus; settings: Iberian wolf n = 1
Protocol: as §1, §2, §3, §4, §5, §6, §7

[16] = system: sarcoptic mange; set-up: method as in PMID 30895701; settings: Raccoon dogs, one oral dose; cited from earlier work
[17] = fecal elimination, oral 26.3 mg.kg^−1
[18] = fecal elimination, oral 34.5 mg.kg^−1
[19] = fecal elimination, Mountain lion n = 3, mean ± SD, oral 20.8–25.0 mg.kg^−1
[20] = feces, Mountain lion n = 3, mean ± SD, oral 20.8–25.0 mg.kg^−1
[21] = fecal elimination, oral 36.8 mg.kg^−1
[22] = fecal elimination, oral 28.6 mg.kg^−1

For `Cc1cc(C2=NOC(c3cc(Cl)cc(Cl)c3)(C(F)(F)F)C2)ccc1C(=O)NCC(=O)NCC(F)(F)F` (centres unmarked) [fluralaner, Fluralaner], the Dogs displaying alopecia [1] is listed as 4%, the Dogs displaying vomiting [1] is listed as 6% and the DT50 in soil ([2]; CVMP assessment report) is listed as ~1,000 days. For the same compound, the DT50 in soil ([2]; VSDB) was 60 days, the “DT50 in aquatic environments” value ([2]; aerobic waters) was 3 to 4 days and the DT50 in soil ([2]; sandy loams) was “up to 989 days”. The DT50 in sediments ([2]; sediments) was 112 to 195 days, the Efficacy period ([3]; dogs and cats) was 12 week and the “Duration of insecticidal effect on dog and cat fleas” value ([3]; reference not given) was 12 weeks. For the same compound, the MRT [4, 17] was 24 h, the t1/2 [4, 17] was 72 h and the Cmax ([4]; feces, Bravecto tablet oral with food, 26.3 mg.kg^−1, rough estimate, residues in control animal in same cage) was 370,295 μg.kg-^1 dry weight. The “AUC (D0-D112)” value ([4]; feces, oral 26.3 mg.kg^−1) was 1,373,277 d* μg.kg-^1 dry weight, the “AUC(0-infini)” value ([4]; feces, oral 26.3 mg.kg^−1) was 1,373,579 d* μg.kg-^1 dry weight and the Last detection day ([4]; feces, oral 26.3 mg.kg^−1) was 35 days. The tmax ([4]; feces, oral 26.3 mg.kg^−1, rough estimate) was 24 h, the Toxicity classification [5] was “highly toxic” and the “Administered dose eliminated unchanged in the feces” value [6] was 90%. For the same compound, the “Administered dose eliminated unchanged in the feces” value ([6]; rats, dogs and chickens) was “up to 90%”, the “Eliminated via the feces as the unchanged compound” value ([6]; reference not given) was over 90% and the “Effect of food on bioavailability” value ([7]; dogs fed prior to the administration of the drug) was “doubled”. For the same compound, the Half-life ([7]; dogs, oral administration) was 264 to 312 h, the “Bioavailability, topical administration” value ([7]; dogs, topical) was 22–25% and the Half-life [8] was 118 h. The MRT [9, 18] was 360 h, the t1/2 [9, 18] was 190 h and the Cmax ([9]; feces, Bravecto tablets oral with food, 34.5 mg.kg^−1, rough estimate) was 16,089 μg.kg-^1 dry weight. The “AUC (D0-D112)” value ([9]; feces, oral 34.5 mg.kg^−1) was 145,337 d* μg.kg-^1 dry weight, the “AUC(0-infini)” value ([9]; feces, oral 34.5 mg.kg^−1) was 145,752 d* μg.kg-^1 dry weight and the Last detection day ([9]; feces, oral 34.5 mg.kg^−1) was 72 days. For the same compound, the tmax ([9]; feces, oral 34.5 mg.kg^−1, rough estimate) was 170 h, the Cmax ([10]; Bravecto tablet oral with food, 125 mg.kg^−1, rough estimate, residues in control animal in same cage) was 15 μg.kg-^1 dry weight and the “AUC (D0-D112)” value ([10]; oral 125 mg.kg^−1) was 105 d* μg.kg-^1 dry weight. For the same compound, the Last detection day ([10]; oral 125 mg.kg^−1) was 14 days, the tmax ([10]; oral 125 mg.kg^−1, rough estimate) was 336 h and the Protein-bound [11] was over 99%. For the same compound, the MRT [12, 19] was 72 ± 24 h, the t1/2 [12, 19] was 140 ± 24 h and the Cmax ([12]; feces, Mountain lion n = 3, mean ± SD, Bravecto tablets oral with food, 20.8–25.0 mg.kg^−1, rough estimate) was 12,909 ± 4,954 μg.kg-^1 dry weight. The “AUC (D0-D112)” value [12, 20] was 54,158±19,755 d* μg.kg-^1 dry weight, the “AUC(0-infini)” value [12, 20] was 54,786±19,755 d* μg.kg-^1 dry weight and the Last detection day ([12]; feces, Mountain lion n = 3, oral 20.8–25.0 mg.kg^−1) was 49 days. It also gave a tmax ([12]; feces, Mountain lion n = 3, oral 20.8–25.0 mg.kg^−1, rough estimate) of 24 h, an MRT [13, 21] of 384 h and a t1/2 [13, 21] of 48 h. For the same compound, the Cmax ([13]; feces, Bravecto tablet oral with food, 36.8 mg.kg^−1, rough estimate) was 2,137 μg.kg-^1 dry weight, the “AUC (D0-D112)” value ([13]; feces, oral 36.8 mg.kg^−1) was 41,301 d* μg.kg-^1 dry weight and the “AUC(0-infini)” value ([13]; feces, oral 36.8 mg.kg^−1) was 41,354 d* μg.kg-^1 dry weight. The Last detection day ([13]; feces, oral 36.8 mg.kg^−1) was 42 days, the tmax ([13]; feces, oral 36.8 mg.kg^−1, rough estimate) was 170 h and the Safety [14] was “safe”. The MRT [15, 22] was 140 h, the t1/2 [15, 22] was 120 h and the Cmax ([15]; feces, Bravecto tablet oral with food, 28.6 mg.kg^−1, rough estimate) was 620 μg.kg-^1 dry weight. For the same compound, the “AUC (D0-D112)” value ([15]; feces, oral 28.6 mg.kg^−1) was 7,218 d* μg.kg-^1 dry weight, the “AUC(0-infini)” value ([15]; feces, oral 28.6 mg.kg^−1) was 7,260 d* μg.kg-^1 dry weight and the Last detection day ([15]; feces, oral 28.6 mg.kg^−1) was 31 days. The tmax ([15]; feces, oral 28.6 mg.kg^−1, rough estimate) was 24 h and the “Time to cure from sarcoptic mange” value [16] was 7 days.
